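A five-concentration, 48-hour dose response in 96-well plates underlies each endpoint, interpolated linearly between surrounding concentrations. Abbreviation: GI50, concentration required for 50% inhibition of growth.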 Activity calls are given as the source filed them. Rule as the data show it: active = GI50 up to about 1.1 µM and inactive = higher.
What was measured:
Assay in all cases: NCI tumour cell line growth inhibition, 48 h
EKVX = system: EKVX
PC-3 = system: PC-3
SF-539 = system: SF-539
MDA-MB-231 = system: MDA-MB-231
CAKI-1 = system: CAKI-1
Hs-578T = system: Hs-578T
UACC-62 = system: UACC-62
HCC 2998 = system: HCC 2998
SF-268 = system: SF-268
RXF 393 = system: RXF 393
U-251 = system: U-251
SK-OV-3 = system: SK-OV-3
SW-620 = system: SW-620
HCT-116 = system: HCT-116
NCI-H522 = system: NCI-H522
RPMI-8226 = system: RPMI-8226
MOLT-4 = system: MOLT-4
M14 = system: M14
A498 = system: A498

| SMILES | GI50 (EKVX) | GI50 (PC-3) | GI50 (SF-539) | GI50 (MDA-MB-231) | GI50 (CAKI-1) | GI50 (Hs-578T) | GI50 (UACC-62) | GI50 (HCC 2998) | GI50 (SF-268) | GI50 (RXF 393) | GI50 (U-251) | GI50 (SK-OV-3) | GI50 (SW-620) | GI50 (HCT-116) | GI50 (NCI-H522) | GI50 (RPMI-8226) | GI50 (MOLT-4) | GI50 (M14) | GI50 (A498) |
| --- | --- | --- | --- | --- | --- | --- | --- | --- | --- | --- | --- | --- | --- | --- | --- | --- | --- | --- | --- |
| CC(C)C1/C(=N/O)CC(c2ccccc2)N(N=O)C1c1ccccc1 (configuration not stated) | 20.9 µM (inactive) | 33.3 µM (inactive) | 57.8 µM (inactive) | 81.3 µM (inactive) | 19.2 µM (inactive) | 17.5 µM (inactive) | 19.7 µM (inactive) | 37.2 µM (inactive) | 51.8 µM (inactive) | 20.9 µM (inactive) | 52.7 µM (inactive) | 24.8 µM (inactive) | 40.6 µM (inactive) | 28.5 µM (inactive) | 37 µM (inactive) | 45.4 µM (inactive) | 32.3 µM (inactive) | 40.7 µM (inactive) | – |
| CCCCc1ccc(N2C(=O)c3cc([N+](=O)[O-])cnc3S2(=O)=O)cc1 | > 100 µM (inactive) | > 100 µM (inactive) | > 100 µM (inactive) | > 100 µM (inactive) | > 100 µM (inactive) | > 100 µM (inactive) | > 100 µM (inactive) | > 100 µM (inactive) | 24.2 µM (inactive) | – | 31.8 µM (inactive) | > 100 µM (inactive) | > 100 µM (inactive) | > 100 µM (inactive) | – | > 100 µM (inactive) | > 100 µM (inactive) | > 100 µM (inactive) | > 100 µM (inactive) |
| CCCN1C(=O)CC(C)N(Cc2ccccc2Cl)C1=S (configuration not stated) | 27.9 µM (inactive) | 22.8 µM (inactive) | 16 µM (inactive) | 28.7 µM (inactive) | 36.9 µM (inactive) | 30.8 µM (inactive) | 19.1 µM (inactive) | – | 24.4 µM (inactive) | 3.9 µM (inactive) | 24 µM (inactive) | 31.9 µM (inactive) | 30.8 µM (inactive) | 24.7 µM (inactive) | 21.1 µM (inactive) | 24.8 µM (inactive) | 28.2 µM (inactive) | 25.7 µM (inactive) | 14.2 µM (inactive) |
| [O-][S+](c1ccccc1)c1ccc(/N=N/O)nc1 (configuration not stated) | > 100 µM (inactive) | 78.5 µM (inactive) | > 100 µM (inactive) | > 100 µM (inactive) | > 100 µM (inactive) | > 100 µM (inactive) | > 100 µM (inactive) | – | > 100 µM (inactive) | 0.213 µM (active) | > 100 µM (inactive) | > 100 µM (inactive) | > 100 µM (inactive) | > 100 µM (inactive) | > 100 µM (inactive) | – | > 100 µM (inactive) | > 100 µM (inactive) | > 100 µM (inactive) |
| CC(=O)NC1C(OC2C(CO)OC(OCC3OC(n4ccc(N)nc4=O)C(O)C3O)C(NC(C)=O)C2O)OC(CO)C(O)C1O (configuration not stated) | > 100 µM (inactive) | > 100 µM (inactive) | > 100 µM (inactive) | > 100 µM (inactive) | > 100 µM (inactive) | > 100 µM (inactive) | > 100 µM (inactive) | – | > 100 µM (inactive) | > 100 µM (inactive) | > 100 µM (inactive) | > 100 µM (inactive) | > 100 µM (inactive) | > 100 µM (inactive) | 9.2 µM (inactive) | > 100 µM (inactive) | > 29.4 µM (inactive) | > 100 µM (inactive) | > 100 µM (inactive) |
| CCCNC(=O)c1cc(NC(=O)c2cc(NC(=O)/C=C/c3ccccc3)c(OC)c(OC)c2)c(OC)c(OC)c1 | 15.8 µM (inactive) | 6.87 µM (inactive) | 6.14 µM (inactive) | 1.26 µM (inactive) | – | 1.92 µM (inactive) | 0.148 µM (active) | – | 2.05 µM (inactive) | 2.42 µM (inactive) | 4.11 µM (inactive) | 7.62 µM (inactive) | > 100 µM (inactive) | 5.7 µM (inactive) | 4.72 µM (inactive) | 27 µM (inactive) | > 100 µM (inactive) | 38.4 µM (inactive) | 11.4 µM (inactive) |
| Cc1cccc(Nc2cc(Cl)nc(SCC(=O)O)n2)c1C [PIRINIXIC ACID] | > 100 µM (inactive) | > 100 µM (inactive) | > 100 µM (inactive) | > 100 µM (inactive) | > 100 µM (inactive) | > 100 µM (inactive) | > 100 µM (inactive) | – | – | > 100 µM (inactive) | > 100 µM (inactive) | > 100 µM (inactive) | > 100 µM (inactive) | > 100 µM (inactive) | > 100 µM (inactive) | 97.7 µM (inactive) | 63.1 µM (inactive) | > 100 µM (inactive) | > 100 µM (inactive) |
| CSC1=N/C(=C\c2ccccc2)C(=O)N1CN1CCOCC1 | 50.6 µM (inactive) | 68.9 µM (inactive) | – | > 100 µM (inactive) | – | 47.5 µM (inactive) | 34 µM (inactive) | – | 61.5 µM (inactive) | – | 64.4 µM (inactive) | > 100 µM (inactive) | 41.6 µM (inactive) | 39.4 µM (inactive) | 51.8 µM (inactive) | 30.1 µM (inactive) | 64.6 µM (inactive) | 91.8 µM (inactive) | > 100 µM (inactive) |

Reference: ChEMBL document CHEMBL1201862, “PubChem BioAssay data set” (2004)
